Paper PMC6891598, “Application of N-Dodecyl L-Peptide to Enhance Serum Stability while Maintaining Inhibitory Effects on Myometrial Contractions Ex Vivo” (Molecules, 2019)
Entries after “also recorded” stand apart in the source; their conditions may differ. Residues, ends and D or L forms follow the SMILES beside them.

How the values were obtained:
[1] = test system: murine myometrial tissue (PGF2α-induced contractions; FP); conditions: cited from earlier work
Source text: Moreover, addition of the dodecyl chain enhanced plasma stability.

[2] = test system: intrauterine pressure and pain in women with primary dysmenorrhea; conditions: phase Ib; cited from earlier work
Source text: The prostaglandin F2α receptor (FP) is a promising target for delaying labor because of its relevant involvement in parturition. At the beginning of labor and preterm labor, FP expression increases. […] Targeting FP, the tocolytic prototype PDC31 is currently undergoing clinical trials.

[3] = test system: LPS-induced preterm delivery in pregnant CD-1 mice; conditions: cited from earlier work
Protocol: (§1) The ability of peptide L-4d to delay labor in vivo was next tested in mice near term and treated with lipopolysaccharide (LPS) Escherichia coli endotoxin, as a pathogen associated molecular pattern, which is known to promote a general inflammatory state resulting in prostaglandin synthesis and induced premature delivery. Following LPS injection into mice (n = 4–5) at gestational day 16, all the animals tested delivered within 12−24 h.

[4] = test system: prostaglandin F2α receptor (FP); conditions: FP inhibition, cited from earlier work
Protocol: The development of PDC31 originated from a library of sequences based on the second extracellular loop of FP. Short lead peptides were analyzed initially using in vitro and ex vivo analyses. […] Moreover, addition of the dodecyl chain enhanced plasma stability.

[5] = serum stability study (mouse serum/plasma, MS/MS); type: in vitro ADME; conditions: mouse plasma (method: serum), 37 °C, incubation up to 2 hours, LC-MS/MS, internal standard L-4f
Protocol: Peptide L-4d was further examined for stability in serum and compared to L-PDC31. The two peptides were incubated at 37 °C in mouse plasma. Aliquots were removed at different time intervals and analyzed by mass spectrometry (MS/MS) to detect remaining amount of peptide (Figure 3).
Serum was […] and kept on ice throughout the procedure. Two blanks were prepared by adding 5 µL of DMSO to 95 µL of serum. These were incubated for 2 h and submitted to the same treatment as the other samples. Two series of vials containing 95 µL of serum were prepared and spiked with either 5 µL of L-PDC31 [0.4 mM] or L-4d [0.4 mM], and incubated for 120, 60, 30, 15, 10 and 5 min, respectively, after which 100 µL of 4% phosphoric acid was added. Two vials were also spiked with 5 µL L-PDC31 and L-4d, respectively, and immediately treated with phosphoric acid (time = 0 min). The vials were incubated for 5 min at 95 °C, cooled on ice for 2 min, treated with 600 µL of cold MeCN containing L-4f (0.02 mM) as internal standard, and incubated at –20 °C overnight. After the incubation period, the vials were vortexed for 2 min and centrifuged at 4 °C for 15 min. The supernatant was transferred into LC-MS vials and analyzed.
Results were expressed as: (AN/IS/AN0/IS0)∗100
AN and IS refer, respectively, to the analyte and internal standard MS signals. Both values are compared with initial injection at which time AN0 and IS0 were not incubated.

[6] = test system: LPS-induced preterm delivery in pregnant CD-1 mice; experiment: LPS-induced mouse preterm birth (PTB) model; type: in vivo, mouse (CD-1); conditions: gestational day 16, LPS 10 μg/animal i.p., L-4d 20 mg/day/animal by s.c. osmotic pump after 0.1 mg/animal i.p. bolus, n = 5 (saline n = 4)
Protocol: as §1
Timed-pregnant CD-1 mice at 16 days gestation (normal term is 19.2 days) were anesthetized with isoflurane (2%). Primed osmotic pumps (Alzet pump, Alzet, Cupertino, CA) containing either saline (n = 4) or compound L-4d (20 mg/day/animal, n = 5) were respectively subcutaneously implanted on the backs of the animals; infusion of peptide was immediately preceded by bolus injection of peptide (0.1 mg/animal intraperitoneally). Within 15 min after placement of the pumps, animals were injected with lipopolysaccharide (LPS) Escherichia coli endotoxin (10 μg/animal intraperitoneally) to mimic the inflammatory/infectious component of human preterm labor. Animals were inspected every hour for the first 18 h and every 2 h thereafter to document the timing of birth. Results are expressed as percentages of animals delivered following the injection of LPS [57]. […]

[7] = test system: murine myometrial tissue (KCl-induced tension); experiment: mean tension induced by KCl (positive control) in mouse myometrial tissue; parameters: species or system mouse (CD-1); conditions: post-partum mouse myometrial tissue
Protocol: (§2) All the peptides were initially tested in an ex vivo mouse myometrial tissue contraction assay. Contractile activity was measured on tissue that was harvested post-partum and treated with prostaglandin F2α (PGFα) alone (control) or in the presence of peptides L-4b-4g, L-7, and L-8. […] Mean tension induced by KCl (as a positive control) was not affected by L-4d.
The uterus from the CD-1 mouse was obtained from the animal immediately after term delivery under anesthesia (2.5% isoflurane). Briefly, a midline abdominal incision was made and the uterine horns were rapidly excised, cleansed carefully of the surrounding connective tissues, and removed. Longitudinal myometrial strips (2 to 3 mm wide and 1 cm long) were dissected free from the uterus and mounted isometrically in organ tissue baths. The initial tension was set at 2 g. […] Isometric tension was measured by a force transducer and recorded by a BIOPAC data acquisition system (BIOPAC MP150, Montreal, PQ, Canada). […] Mean tension of spontaneous contractions was measured using a BIOPAC digital polygraph system (AcqKnowledge); the same parameters were also determined after addition of PGF2α in the presence or the absence of a 20 min-pretreatment with different FP inhibitors. […] Changes in mean tension (g) were expressed as percentages of the initial reference response (% of baseline).

[8] = test system: murine myometrial tissue (PGF2α-induced contractions; FP); experiment: ex vivo mouse myometrial tissue contraction assay (PGF2α-induced); parameters: species or system mouse (CD-1); conditions: post-partum CD-1 mouse myometrial strips, Krebs buffer pH 7.4, 37 °C, 20 min pretreatment with peptide at two concentrations, then PGF2α; 4–6 experiments per group, means ± SEM, t-test, p < 0.05 vs vehicle
Protocol: as §2
Pregnant CD-1 mice (16-17 days gestation, term 19 days) were obtained from Charles River Inc. and used according to a protocol of the Animal Care Committee of Hôpital Sainte-Justine according to the principles of the Guide for the Care and Use of Experimental Animals of the Canadian Council on Animal Care. The animals were maintained on standard laboratory chow under a 12:12 light:dark cycle and allowed free access to chow and water.
The uterus from the CD-1 mouse was obtained from the animal immediately after term delivery under anesthesia (2.5% isoflurane). Briefly, a midline abdominal incision was made and the uterine horns were rapidly excised, cleansed carefully of the surrounding connective tissues, and removed. Longitudinal myometrial strips (2 to 3 mm wide and 1 cm long) were dissected free from the uterus and mounted isometrically in organ tissue baths. The initial tension was set at 2 g. The tissue baths contained 20 mL of Krebs buffer of the following composition (in mM): 118 NaCl, 4.7 KCl, 2.5 CaCl2, 0.9 MgSO4, 1 KH2PO4, 11.1 glucose, and 23 NaHCO3 (pH 7.4). The buffer was equilibrated with 95% oxygen/5% carbon dioxide at 37 °C. Isometric tension was measured by a force transducer and recorded by a BIOPAC data acquisition system (BIOPAC MP150, Montreal, PQ, Canada). Experiments were begun after 1 h equilibration. Mean tension of spontaneous contractions was measured using a BIOPAC digital polygraph system (AcqKnowledge); the same parameters were also determined after addition of PGF2α in the presence or the absence of a 20 min-pretreatment with different FP inhibitors. At the start of each experiment, mean tension of spontaneous myometrial contractions was considered as a reference response. Changes in mean tension (g) were expressed as percentages of the initial reference response (% of baseline).
At the start of each experiments, mean tension of spontaneous myometrial contractions was considered as a reference response. Increase in mean tension (%) was expressed as percentages of (X/Y)-100, where X is the change in mean tension (g) induced by PGF2α and Y is the initial reference response (g). Data are representative of 4–6 experiments per treated group. All results are expressed as means ± SEM and were compared by Independent t-tests. Statistical tests were performed with GraphPad Prism 4.3 software and p < 0.05 was considered statistically significant.

| Compound | effect on spontaneous and PGF2α-induced contractions in postpartum mice myometrium [1] | safety and effect on intrauterine pressure and pain [2] | ability to delay labor in the PTB model [3] | efficacy [4] | IC50 ([4]; read-out: potency (IC50)) | stability in mouse plasma, in words [5] | ability to delay labor (time of delivery) in LPS-induced PTB model [6] | effect on mean tension induced by KCl (positive control) [7] | effect on PGF2α-induced contractions (mean tension) of myometrial tissue [8] |
| --- | --- | --- | --- | --- | --- | --- | --- | --- | --- |
| H-ile-leu-Gly-his-cit-asp-tyr-lys-OH [PDC31] | reduce both the strength and length of spontaneous and PGF2α-induced contractions | safe in reducing intrauterine pressure and pain associated with excessive uterine contractility | delay labor | > 85% | 13 nM | – | – | – | – |
| CCCCCCCCCCCCN[C@H](C(=O)N[C@@H](CC(C)C)C(=O)NCC(=O)N[C@@H](Cc1c[nH]cn1)C(=O)N[C@@H](CCCNC(N)=O)C(=O)N[C@@H](CC(=O)O)C(=O)N[C@@H](Cc1ccc(O)cc1)C(=O)N[C@@H](CCCCN)C(=O)O)[C@@H](C)CC [L-4d, N-Dodecyl-Ile-Leu-Gly-His-Cit-Asp-Tyr-Lys-OH] (HELM PEPTIDE1{[CCCCCCCCCCCCN[C@H](C(=O)[*:2])[C@@H](C)CC].L.G.H.[Cit].D.Y.K}$$$$V2.0) | – | – | – | – | – | still present after 2 hours of incubation | unable to exhibit a statistically significant reduction in the time of delivery; also recorded: failed to prolong labor in vivo; also recorded: inactive in vivo; also recorded: no significant ability to delay labor | not affected | significant reduction of contractions; also recorded: able to reduce uterine contractions induced by PGF2α; also recorded: significant reduction of PGF2α-induced contractility |
